Assay results reported in patent publication US20090221095A1, “Colorimetric Screening of DNA Binding/Intercalating Agents with Gold Nanoparticle Probes” (NORTHWESTERN UNIVERSITY, priority 2005, published 2009).

How the values were obtained:
Type in all cases: binding
[1] = test system: triplex DNA on chip surface; experiment: Chip-based scanometric detection of triplex DNA binders (silver enhancement); conditions: varying salt concentrations (0.1 to 0.3 M NaCl), binder 5 μM, DNA-3 150 nM
Protocol: For scanometric detection of duplex or triplex DNA binding molecules, Au nanoparticles (1 nM) and DNA binding molecules (5 μM) in 10 mM PBS buffer of varying NaCl concentrations were added to the microarray slide under hybridization wells (Nanosphere, Inc.). For detection of triplex binders, 150 nM DNA-3 was added. DNA hybridization proceeded for 30 min (for duplex DNA binders) or 1 h (for triplex DNA binders) in a humidity chamber. After hybridization, the slides were washed three times with 0.5 M NaNO3 containing 0.02% Tween 20. The arrays were dried using a benchtop spinner. Silver enhancement solution (Nanosphere, Inc.) was added for Au-NP signal amplification (1 mL total volume/array, 1.5-min development time for duplex DNA binding molecules and 3 min for triplex binding molecules). The reaction was terminated by washing the slides with NANOpure® water and spin-drying. Light-scattering images from the silver-enhanced chips were recorded using the high-resolution Verigene ID system (Nanosphere, Inc.).
Capture strands of synthetic oligonucleotides are patterned on a glass chip using a microarrayer. The DNA chip is then exposed to a solution containing three components: 1) complementary DNA (no nanoparticles), 2) DNA functionalized Au nanoparticles (DNA is non-complementary to the arrayed DNA) and 3) DNA binders, Scheme 4. The complementary solution-phase DNA, called DNA-3 in Scheme 2, hybridizes to the DNA on the chip surface and forms a duplex. The Au nanoparticle-bound DNA has the correct sequence to form a triplex with the surface bound duplex through sequence-specific Hoogsteen, or reverse Hoogsteen, base pairing. The triplex structure is relatively unstable at room temperature and will only form in the presence of triplex DNA binding molecules. The presence of the triplex DNA binding molecules increase the stability of the triplex, immobilizing the Au nanoparticles on the chip surface. The chip was then exposed to silver enhancement solution for further signal enhancement and then imaged using a Verigene ID scanner.
The assay was performed in the presence of two triplex binders, coralyn (CORA) and benzo[e]pyridoindole (BePI), seven duplex DNA binders, 4′,6-diamidino-2-phenylindole (DAPI), ellipticine (EIPT), amsacrine (AMSA), daunorubicin (DNR), anthraquinone-2-carboxylic acid (AQ2A), ethidium bromide (EB), and 9-aminoacridine (9-AA))., and one control (no DNA-3). Similar to the DNA duplex, the formation of the DNA triplex is a reversible process which is affected by both temperature and salt concentration. However, compared to the duplex, the stability of the triplex is much more sensitive to salt concentration. Therefore, to determine the relative binding strength of the triplex DNA binders, the assay was performed at varying salt concentrations, FIG. 7. At 0.3 M NaCl, both the strong (BePI) and weaker (CORA) triplex binders show signal.

[2] = test system: triplex DNA (NP-1/DNA-3/NP-2); experiment: Colorimetric triplex binder assay: aggregation of NP-1, NP-2 gold nanoparticles and free DNA-3; conditions: NP-1 and NP-2 1.5 nM each, DNA-3 150 nM, binder 5 μM, 10 mM PBS pH 7.0, NaCl 0.5 M, room temperature
From the text: This method utilizes the aggregation-induced, red-to-blue color change associated with 13 nm gold (Au) nanoparticles. The assay consists of two sets of gold nanoparticles NP-1 and NP-2, and a free strand of DNA, DNA-3. […] DNA-3 is complementary to NP-1 with a two base dangling end to prevent noncross-linked NP-1 aggregation. When NP-1 and DNA-3 are combined, they form nonaggregate linking duplexes on the nanoparticle surface. […] However, introduction of a strong triplex binding agent, benzo[e]pyridoindole (BePl), stabilizes triplex formation through Hoogsteen-type Py-PaPy triplet base hydrogen bonds and induces nanoparticle aggregation resulting in a concomitant red-to-blue color change due to a red-shifting and dampening of the nanoparticle plasmon resonance (Scheme 1).
This assay is prepared by combining NP-1 and NP-2 (1.5 nM each) in a 1:1 molar ratio in 10 mM PBS buffer (pH=7.0, NaCl 0.5 M) with DNA-3 (150 nM) and BePl (5 μM). […] This stabilization results in a dramatic decrease in absorbance at 520 nm accompanied by a red-to-blue color change. Note that in the absence of DNA-3, NP-1 and NP-2 cannot form aggregates even in the presence of a strong triplex binder (FIG. 1B).
To further investigate the importance of the triplex structure and rule out aggregation due to duplex formation between the nanoparticles, the assay as set out in Example I was performed in the presence of seven additional duplex binders 4′,6-diamidino-2-phenylindole (DAPI), ellipticine (EIPT), amsacrine (AMSA), daunorubicin (DNR), anthraquinone-2-carboxylic acid (AQ2A), ethidium bromide (EB), and 9-aminoaclidine (9-AA)(5 μM).
In general, assay methods that can detect drug candidates by the naked eye, without resorting to any instrumentation, are convenient, and for this reason, an assay that could screen for triplex binders would be of great interest. At present, there are no assays that provide this capability. […] The mixtures of NP-1, NP-2 and DNA-3 containing the control and duplex intercalators remain red in color.

[3] = test system: duplex DNA between NP-1 and NP-2; experiment: Melting temperature of NP-1/NP-2 gold nanoparticle duplex nanoassemblies (520 nm); conditions: NP-1 and NP-2 1.5 nM each, intercalator 5 μM, 10 mM PBS pH 7.0, NaCl 0.1 M, control 26.4
From the text: This method also utilizes the aggregation-induced, red-to-blue color change associated with 13 nm Au nanoparticles. Gold nanoparticles are functionalized with one of two complementary thiol-modified oligonucleotide strands and are denoted NP-1 and NP-2. When NP-1 and NP-2 are combined, they form aggregates through a reversible DNA hybridization process. This process results in a red-to-blue color change due to a red-shifting and dampening of the nanoparticle plasmon resonance. Increasing the temperature above the melting temperature of the DNA reverses the process, and the particles dissociate with a concomitant blue-to-red color change. […] This increased stability is reflected by an increase in melting temperature. Note that the shape and breadth of the transition is almost independent of the intercalator (FIG. 4). Therefore, by monitoring the blue-to-red color transition of hybridized oligonucleotide-modified Au nanoparticles in the presence of different compounds, the relative strength of intercalator binding can be determined with the naked-eye.
The assay is initiated by mixing NP-1 and NP-2 (1.5 nM each) in a 1:1 molar ratio in 10 mM PBS buffer (pH=7.0, NaCl 0.1 M. The melting temperatures of the nanoassemblies (NP-1 and NP-2) were then determined in the presence of 4′,6-diamidino-2-phenylindole (DAPI), ellipticine (EIPT), Amsacrine (AMSA), daunorubicin (DNR), anthraquinone-2-carboxylic acid (AQ2A), ethidium bromide (EB), and 9-aminoacridine (9-AA) (5 μM), respectively. UV melting profiles were measured by monitoring the absorbance at 520 nm at a scan rate of 0.5° C. min^−1. Melting temperatures were determined by taking the maxima of the first derivative of the melting curves. Control experiments were run by determining the melting temperatures of unmodified duplex DNA (DNA-1: 5′-TAACAATAA-3′, DNA-2: 5′-TTATTGTTA-3′) in the presence of all seven intercalators shown in Table 1.

Row | SMILES | scanometric signal [1] | nanoparticle aggregation (decrease in absorbance at 520 nm, red-to-blue color change) [2] | Tm^a, melting temperature of nanoassemblies [3] [°C]
1 | Nc1c2ccccc2nc2ccccc12 [9-AA, 9-aminoacridine] | No signal | no nanoparticle aggregation | 30.9
2 | O=C(O)c1ccc2c(c1)C(=O)c1ccccc1C2=O [AQ2A, anthraquinone-2-carboxylic acid] | No signal | no nanoparticle aggregation | 28.5
3 | N=C(N)c1ccc(-c2cc3ccc(C(=N)N)cc3[nH]2)cc1 [DAPI, 4′,6-diamidino-2-phenylindole] | No signal | no nanoparticle aggregation | 50.4
4 | COc1cccc2c1C(=O)c1c(O)c3c(c(O)c1C2=O)C[C@@](O)(C(C)=O)C[C@@H]3O[C@H]1C[C@H](N)[C@H](O)[C@H](C)O1 [DNR, daunorubicin] | No signal | no nanoparticle aggregation | 38.4
5 | Cc1c2ccncc2c(C)c2c1[nH]c1ccccc12 [EIPT, ellipticine] | No signal | no nanoparticle aggregation | 29.2
